In patent US20240398805A1, “QUINAZOLINE DERIVED COMPOUNDS AS EGFR INHIBITORS AND THEIR USES THEREOF” (ACCUTAR BIOTECHNOLOGY INC., priority 2021, published 2024) one finds GI50 data, which are given here for 17 compounds.

Assay type in all cases: cell-based
The subject of assay [1] is HCC827-YVMA cells (human ERBB2 exon20 insertion mutant A775_G776ins YVMA). As to the kind of experiment: Cell growth inhibition (CellTiter-Glo, 3 days) in HCC827-YVMA. Particulars: 72 h, 3 days after administration. A digest of the protocol:
(§1)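 Growth inhibition used a CellTiter-Glo luminescence read-out after 3 days of compound exposure at various concentrations. Cells were plated the day before at 5000/well in RPMI plus 10% FBS. The lines are HCC827 transduced by lentivirus with codon-optimized EGFR ASV or ERBB2 YVMA exon 20 insertions.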

Assay [2] relates to A431 cells. As to the kind of experiment: Cell growth inhibition (CellTiter-Glo, 3 days) in A431. Particulars: Homo sapiens, A-431, 72 h, 3 days after administration. An outline of the steps:
(§2)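 Growth inhibition was scored by CellTiter-Glo luminescence after 3-day compound exposure at various concentrations. Cells were plated at 5000/well the day before treatment: A431 in DMEM and HCC827 in RPMI, each with 10% FBS.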
In general terms: ATP-based viability assays read luminescence as a measure of living cells.

Assay [3] relates to HCC827 cells. The assay is described as follows: Cell growth inhibition (CellTiter-Glo, 3 days) in HCC827. As to conditions: Homo sapiens, 72 h, 3 days after administration. An outline of the steps: as §2
For assay [4], the system named is HCC827-SVD cells (human EGFR exon 20 insertion mutant D770_N771 insSVD). As to the kind of experiment: Cell growth inhibition (CellTiter-Glo, 3 days) in HCC827-SVD. As to conditions: 72 h, 3 days after administration. A digest of the protocol:
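HCC827 cells carrying lentiviral codon-optimized EGFR D770_N771 insSVD, with endogenous EGFR knocked out by CRISPR (single clone), seeded at 5000 cells/well in RPMI with 10% FBS. Viability read by CellTiter-Glo luminescence.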

In assay [5] the test system is HCC827-ASV cells (human EGFR exon 20 insertion mutant A769_D770insASV). The assay is described as follows: Cell growth inhibition (CellTiter-Glo, 3 days) in HCC827-ASV. As to conditions: 72 h, 3 days after administration. A digest of the protocol: as §1

As to `C=CC(=O)N1CCC(Nc2cc3c(Nc4ccc(Oc5ccnc(N(C)C)c5)cc4F)ncnc3cc2OC)CC1` [Example 103, 1-(4-((4-((4-((2-(dimethylamino)pyridin-4-yl)oxy)-2-fluorophenyl)amino)-7-methoxyquinazolin-6-yl)amino)piperidin-1-yl)prop-2-en-1-one], the 50% growth inhibitory concentration (GI50) is less than 30 nM in assay [1]; 100 to 300 nM in assay [2]; 30 to 60 nM in assay [3]; less than 30 nM in assay [4]; less than 30 nM in assay [5].
Take `C=CC(=O)N1CCC(Nc2cc3c(Nc4ccc(Oc5ccnc(N6CCC(OC)CC6)c5)cc4F)ncnc3cc2OC)CC1` [Example 104, 1-(4-((4-((2-fluoro-4-((2-(4-methoxypiperidin-1-yl)pyridin-4-yl)oxy)phenyl)amino)-7-methoxyquinazolin-6-yl)amino)piperidin-1-yl)prop-2-en-1-one]: the GI50 in assay [1] is less than 30 nM; in assay [2], no less than 1000 nM; in assay [3], 100 to 300 nM; in assay [4] it was less than 30 nM; in assay [5], less than 30 nM.
Turning to `C=CC(=O)N1CCC(Nc2cc3c(Nc4ccc(Oc5ccnc(N6C[C@H](C)O[C@@H](C)C6)c5)cc4F)ncnc3cc2OC)CC1` [Example 105, 1-(4-((4-((4-((2-((2S,6S)-2,6-dimethylmorpholino)pyridin-4-yl)oxy)-2-fluorophenyl)amino)-7-methoxyquinazolin-6-yl)amino)piperidin-1-yl)prop-2-en-1-one], the GI50 in assay [1] was less than 30 nM; in assay [2], no less than 1000 nM; in assay [3] it was 300 to 600 nM; in assay [4], less than 30 nM; in assay [5] it was less than 30 nM.
In the case of `C=CC(=O)N1CCC(Nc2cc3c(Nc4ccc(Oc5ccnc(N6CCCOCC6)c5)cc4F)ncnc3cc2OC)CC1` [Example 106, 1-(4-((4-((4-((2-(1,4-oxazepan-4-yl)pyridin-4-yl)oxy)-2-fluorophenyl)amino)-7-methoxyquinazolin-6-yl)amino)piperidin-1-yl)prop-2-en-1-one], the GI50 in assay [1] is less than 30 nM; in assay [2] it was no less than 1000 nM; in assay [3] it was 100 to 300 nM; in assay [4], less than 30 nM; in assay [5], less than 30 nM.
As for `C=CC(=O)N1CCC(Nc2cc3c(Nc4ccc(OCc5ccc(N6CCOCC6)cn5)cc4F)ncnc3cc2OC)CC1` [Example 107, 1-(4-((4-((2-fluoro-4-((5-morpholinopyridin-2-yl)methoxy)phenyl)amino)-7-methoxyquinazolin-6-yl)amino)piperidin-1-yl)prop-2-en-1-one], the GI50 in assay [1] lay within 300 to 600 nM; in assay [2], 300 to 600 nM; in assay [3], 100 to 300 nM; in assay [4] it was 600 to 1000 nM; in assay [5], 300 to 600 nM.
Consider `C=CC(=O)N1CCC(Nc2cc3c(Nc4ccc(Oc5cc(N6C[C@@H](C)O[C@@H](C)C6)ncc5Cl)cc4F)ncnc3cc2OC)CC1` [Example 108, 1-(4-((4-((4-((5-chloro-2-((2R,6S)-2,6-dimethylmorpholino)pyridin-4-yl)oxy)-2-fluorophenyl)amino)-7-methoxyquinazolin-6-yl)amino)piperidin-1-yl)prop-2-en-1-one], for which the GI50 in assay [1] was 100 to 300 nM; in assay [2], no less than 1000 nM; in assay [3], 300 to 600 nM; in assay [4], 300 to 600 nM; in assay [5], 100 to 300 nM.
Consider `C=CC(=O)N1CCC(Nc2cc3c(Nc4ccc(Oc5ccnn5-c5cnc(OC)c(F)c5)cc4F)ncnc3cc2OC)CC1` [Example 109, 1-(4-((4-((2-fluoro-4-((1-(5-fluoro-6-methoxypyridin-3-yl)-1H-pyrazol-5-yl)oxy)phenyl)amino)-7-methoxyquinazolin-6-yl)amino)piperidin-1-yl)prop-2-en-1-one], for which the GI50 in assay [1] was no less than 1000 nM; in assay [2] it was no less than 1000 nM; in assay [3] it was less than 30 nM; in assay [4] it was no less than 1000 nM; in assay [5], no less than 1000 nM.
As for `C=CC(=O)N1CCC(Nc2cc3c(Nc4ccc(Oc5ncc(N6C[C@@H](C)O[C@@H](C)C6)cn5)cc4F)ncnc3cc2OC)CC1` [Example 110, 1-(4-((4-((4-((5-((2R,6S)-2,6-dimethylmorpholino)pyrimidin-2-yl)oxy)-2-fluorophenyl)amino)-7-methoxyquinazolin-6-yl)amino)piperidin-1-yl)prop-2-en-1-one], the GI50 in assay [1] was no less than 1000 nM; in assay [2], 100 to 300 nM; in assay [3], less than 30 nM; in assay [4], no less than 1000 nM; in assay [5], no less than 1000 nM.
With `C=CC(=O)N1CCC(Nc2cc3c(Nc4ccc(Oc5ccc(N6C[C@@H](C)O[C@@H](C)C6)cn5)cc4F)ncnc3cc2OC)CC1` [Example 111, 1-(4-((4-((4-((5-((2R,6S)-2,6-dimethylmorpholino)pyridin-2-yl)oxy)-2-fluorophenyl)amino)-7-methoxyquinazolin-6-yl)amino)piperidin-1-yl)prop-2-en-1-one], the GI50 was 300 to 600 nM in assay [1]; 600 to 1000 nM in assay [2]; 30 to 60 nM in assay [3]; 300 to 600 nM in assay [4]; 300 to 600 nM in assay [5].
Regarding `C=CC(=O)N1CCC(Nc2cc3c(Nc4ccc(Oc5ccnc(N6CCS(=O)(=O)CC6)c5)cc4F)ncnc3cc2OC)CC1` [Example 112, 1-(4-((4-((4-((2-(1,1-dioxidothiomorpholino)pyridin-4-yl)oxy)-2-fluorophenyl)amino)-7-methoxyquinazolin-6-yl)amino)piperidin-1-yl)prop-2-en-1-one], the GI50 was 600 to 1000 nM in assay [1]; no less than 1000 nM in assay [2]; no less than 1000 nM in assay [3]; 100 to 300 nM in assay [4]; 300 to 600 nM in assay [5].
Consider `C=CC(=O)N1CCC(Nc2cc3c(Nc4ccc(Oc5ccnc(N6CCN(C)CC6)c5)cc4F)ncnc3cc2OC)CC1` [Example 113, 1-(4-((4-((2-fluoro-4-((2-(4-methylpiperazin-1-yl)pyridin-4-yl)oxy)phenyl)amino)-7-methoxyquinazolin-6-yl)amino)piperidin-1-yl)prop-2-en-1-one], for which the GI50 was less than 30 nM in assay [1]; 600 to 1000 nM in assay [2]; 30 to 60 nM in assay [3]; less than 30 nM in assay [4]; less than 30 nM in assay [5].
`C=CC(=O)N1CCC(Nc2cc3c(Nc4ccc(Oc5ccnc(N6CC[C@@H](OC)C6)c5)cc4F)ncnc3cc2OC)CC1` [Example 114, (R)-1-(4-((4-((2-fluoro-4-((2-(3-methoxypyrrolidin-1-yl)pyridin-4-yl)oxy)phenyl)amino)-7-methoxyquinazolin-6-yl)amino)piperidin-1-yl)prop-2-en-1-one]: the GI50 in assay [1] was 100 to 300 nM; in assay [2], no less than 1000 nM; in assay [3], 300 to 600 nM; in assay [4] it was 100 to 300 nM; in assay [5] it was 60 to 100 nM.
In the case of `C=CC(=O)N1CCC(Nc2cc3c(Nc4ccc(Oc5ccnc(N6CC[C@H](OC)C6)c5)cc4F)ncnc3cc2OC)CC1` [Example 115, (S)-1-(4-((4-((2-fluoro-4-((2-(3-methoxypyrrolidin-1-yl)pyridin-4-yl)oxy)phenyl)amino)-7-methoxyquinazolin-6-yl)amino)piperidin-1-yl)prop-2-en-1-one], the GI50 was in the range of 100 to 300 nM in assay [1]; 300 to 600 nM in assay [2]; 300 to 600 nM in assay [3]; 60 to 100 nM in assay [4]; 100 to 300 nM in assay [5].
On to `C=CC(=O)N1CCC(Nc2cc3c(Nc4ccc(Oc5ccnc(N(C)CCOC)c5)cc4F)ncnc3cc2OC)CC1` [Example 116, 1-(4-((4-((2-fluoro-4-((2-((2-methoxyethyl)(methyl)amino)pyridin-4-yl)oxy)phenyl)amino)-7-methoxyquinazolin-6-yl)amino)piperidin-1-yl)prop-2-en-1-one], for which the GI50 in assay [1] fell in the range of 60 to 100 nM; in assay [2], 600 to 1000 nM; in assay [3], 300 to 600 nM; in assay [4], 100 to 300 nM; in assay [5], 100 to 300 nM.
With `C=CC(=O)N1CCC(Nc2cc3c(Nc4ccc(Oc5ccnc(N(CCOC)CCOC)c5)cc4F)ncnc3cc2OC)CC1` [Example 117, 1-(4-((4-((4-((2-(bis(2-methoxyethyl)amino)pyridin-4-yl)oxy)-2-fluorophenyl)amino)-7-methoxyquinazolin-6-yl)amino)piperidin-1-yl)prop-2-en-1-one], the GI50 in assay [1] is 60 to 100 nM; in assay [2] it was no less than 1000 nM; in assay [3] it was 300 to 600 nM; in assay [4], 100 to 300 nM; in assay [5], 100 to 300 nM.
Turning to `C=CC(=O)N1CCC(Nc2cc3c(Nc4ccc(Oc5ccnc(N6CC7(COC7)C6)c5)cc4F)ncnc3cc2OC)CC1` [Example 118, 1-(4-((4-((4-((2-(2-oxa-6-azaspiro[3.3]heptan-6-yl)pyridin-4-yl)oxy)-2-fluorophenyl)amino)-7-methoxyquinazolin-6-yl)amino)piperidin-1-yl)prop-2-en-1-one], the GI50 is 30 to 60 nM in assay [1]; no less than 1000 nM in assay [2]; 300 to 600 nM in assay [3]; 30 to 60 nM in assay [4]; 30 to 60 nM in assay [5].
As to `C=CC(=O)N1CCC(Nc2cc3c(Nc4ccc(Oc5ccnc(N6CC(OC)C6)c5)cc4F)ncnc3cc2OC)CC1` [Example 119, 1-(4-((4-((2-fluoro-4-((2-(3-methoxyazetidin-1-yl)pyridin-4-yl)oxy)phenyl)amino)-7-methoxyquinazolin-6-yl)amino)piperidin-1-yl)prop-2-en-1-one], the GI50 lay within 100 to 300 nM in assay [1]; 100 to 300 nM in assay [2]; 300 to 600 nM in assay [3]; 100 to 300 nM in assay [4]; 60 to 100 nM in assay [5].

For orientation: GI50 means the concentration at which growth is held to half of that of the control. High values mean lower sensitivity of the cells, low ones greater sensitivity of the cells.
